≈ marks a conversion by molar mass, not a printed value.
Tested on: Fusarium graminearum
Experiment: microbe, parasite or virus in culture
Format: cell-based

SMILES: CC1(C)CCC(Cc2ccc(Cl)cc2)C1(O)Cn1cncn1 (stereo not drawn) [Metconazole]
- ED50 (F.g carbendazim-resistant strains): 0.113 µg/mL (≈ 0.353 µM)
- ED50 (F.g phenamacril-resistant strains): 0.115 µg/mL (≈ 0.36 µM)
- inhibition at 0.125 µg/mL (Fusarium graminearum, read-out: inhibitory effect on hyphal growth): > 50%

— US9949479B2 (priority 2015, dated 2018)
